From US9617253B2, “Molecules having pesticidal utility, and intermediates, compositions, and processes, related thereto” (Dow AgroSciences LLC, priority 2015, dated 2017) come the findings set out here.

SMILES strings stand for the structures.

The subject of data set [1] is Cabbage Looper (Trichoplusia ni, TRIPNI). Put plainly: Bioassay on Cabbage Looper (CL), 128-well diet tray assay. It is filed as in vivo. The settings on record: 168 h, second instar CL larvae, 50 μg/cm^2 on artificial diet, 25° C., five to seven days, average of eight wells, read-out: CL % Control (or Mortality) rating. On the procedure: (§1) Certain molecules disclosed in this document were tested against BAW and CL using procedures described in the following examples. In the reporting of the results, the “BAW & CL Rating Table” was used (See Table Section).
Bioassays on CL were conducted using a 128-well diet tray assay. One to five second instar CL larvae were placed in each well (3 mL) of the diet tray that had been previously filled with 1 mL of artificial diet to which 50 μg/cm^2 of the test molecule (dissolved in 50 μL of 90:10 acetone-water mixture) had been applied (to each of eight wells) and then allowed to dry. Trays were covered with a clear self-adhesive cover, vented to allow gas exchange, and held at 25° C., 14:10 light-dark for five to seven days. Percent mortality was recorded for the larvae in each well; activity in the eight wells was then averaged. The results are indicated in the table entitled “Table ABC: Biological Results” (See Table Section).

For data set [2], the system named is Beet Armyworm (Spodoptera exigua, LAPHEG). Put plainly: Bioassay on Beet Armyworm (BAW), 128-well diet tray assay. It is filed as in vivo. The conditions noted are these: 168 h, second instar BAW larvae, 50 μg/cm^2 on artificial diet, 25° C., five to seven days, average of eight wells, read-out: BAW % Control (or Mortality) rating. As for the experimental part:
as §1
Bioassays on BAW were conducted using a 128-well diet tray assay. One to five second instar BAW larvae were placed in each well (3 mL) of the diet tray that had been previously filled with 1 mL of artificial diet to which 50 μg/cm^2 of the test molecule (dissolved in 50 μL of 90:10 acetone-water mixture) had been applied (to each of eight wells) and then allowed to dry. Trays were covered with a clear self-adhesive cover, vented to allow gas exchange, and held at 25° C., 14:10 light-dark for five to seven days. Percent mortality was recorded for the larvae in each well; activity in the eight wells was then averaged. The results are indicated in the table entitled “Table ABC: Biological Results” (See Table Section).

Broadly, the melting point is the temperature of the solid-liquid transition. Molecule `COC(C)c1ccc(C)cc1N1C(=O)CS/C1=N\C(=O)Nc1c(F)cc(OCc2ncn(-c3ccc(OC(F)(F)F)cc3)n2)cc1F` (stereo not drawn) yielded a melting point of 147 to 152 °C.

Molecule `COCc1ccc(C)cc1N1C(=O)CS/C1=N\C(=O)Nc1ccc(OCc2ncn(-c3ccc(OC(F)(F)F)cc3)n2)cc1` displayed a melting point of 165 to 167 °C.

The molecule `COCc1ccc(C)cc1N1C(=O)CS/C1=N\C(=O)Nc1ccc(OCc2ncn(-c3ccc(OC(F)(F)F)cc3)n2)cc1F` returned a melting point of 132 to 134 °C.

With `CCCc1ccc(C)cc1N1C(=O)CS/C1=N\C(=O)Nc1c(F)cc(OCc2ncn(-c3ccc(OC(F)(F)F)cc3)n2)cc1F`, the melting point lay in the range of 169 to 172 °C.

On to `COCc1ccc(C)cc1N1C(=O)CS/C1=N\C(=O)Nc1ccc(OCc2ncn(-c3ccc(OC(F)(F)F)cc3)n2)cc1Cl`, for which the melting point was in the range of 148 to 150 °C.

What is called mortality is the share of the test organisms that died. Consider `COCc1ccc(C)cc1N1C(=O)CS/C1=N\C(=O)Nc1ccc(OCc2ncn(-c3ccc(OC(F)(F)F)cc3)n2)cc1C` [F27, (Z)-1-(3-(2-(Methoxymethyl)-5-methylphenyl)-4-oxothiazolidin-2-ylidene)-3-(2-methyl-4-((1-(4-(trifluoromethoxy)phenyl)-1H-1,2,4-triazol-3-yl)methoxy)phenyl)urea], for which the mortality at 50 µg/cm2 in data set [1] and in data set [2] was 50 to 100% throughout.

`Cc1ccc(C(C)C)c(N2C(=O)CS/C2=N\C(=O)Nc2ccc(OCc3ncn(-c4ccc(OC(F)(F)F)cc4)n3)cc2Cl)c1` [F29, (Z)-1-(2-Chloro-4-((1-(4-(trifluoromethoxy)phenyl)-1H-1,2,4-triazol-3-yl)methoxy)phenyl)-3-(3-(2-isopropyl-5-methylphenyl)-4-oxothiazolidin-2-ylidene)urea]: the mortality at 50 µg/cm2 in data set [1] and in data set [2] was 50 to 100% in each case.

Consider `CCCc1ccc(C)cc1N1C(=O)CS/C1=N\C(=O)Nc1ccc(OCc2ncn(-c3ccc(OC(F)(F)F)cc3)n2)cc1Cl` [F30, (Z)-1-(2-Chloro-4-((1-(4-(trifluoromethoxy)phenyl)-1H-1,2,4-triazol-3-yl)methoxy)phenyl)-3-(3-(5-methyl-2-propylphenyl)-4-oxothiazolidin-2-ylidene)urea], for which the mortality at 50 µg/cm2 in data set [1] and in data set [2] was 50 to 100% each time.

With `COc1cc(OCc2ncn(-c3ccc(OC(F)(F)F)cc3)n2)ccc1NC(=O)/N=C1\SCC(=O)N1c1cc(C)ccc1C(C)C` [F32, (Z)-1-(3-(2-Isopropyl-5-methylphenyl)-4-oxothiazolidin-2-ylidene)-3-(2-methoxy-4-((1-(4-(trifluoromethoxy)phenyl)-1H-1,2,4-triazol-3-yl)methoxy)phenyl)urea], the mortality at 50 µg/cm2 in data set [1] and in data set [2] was 50 to 100% in each case.

In the case of `CCCc1ccc(C)cc1N1C(=O)CS/C1=N\C(=O)Nc1ccc(OCc2ncn(-c3ccc(OC(F)(F)F)cc3)n2)cc1OC` [F33, (Z)-1-(2-Methoxy-4-((1-(4-(trifluoromethoxy)phenyl)-1H-1,2,4-triazol-3-yl)methoxy)phenyl)-3-(3-(5-methyl-2-propylphenyl)-4-oxothiazolidin-2-ylidene)urea], the mortality at 50 µg/cm2 in data set [1] and in data set [2] was 50 to 100% throughout.

Consider `COCc1ccc(C)cc1N1C(=O)CS/C1=N\C(=O)Nc1ccc(OCc2ncn(-c3ccc(OC(F)(F)F)cc3)n2)cc1OC` [F34, (Z)-1-(2-Methoxy-4-((1-(4-(trifluoromethoxy)phenyl)-1H-1,2,4-triazol-3-yl)methoxy)phenyl)-3-(3-(2-(methoxymethyl)-5-methylphenyl)-4-oxothiazolidin-2-ylidene)urea], for which the mortality at 50 µg/cm2 in data set [1] and in data set [2] was 50 to 100% in each case.

For `Cc1ccc(C(C)C)c(N2C(=O)CS/C2=N\C(=O)Nc2ccc(OCc3ncn(-c4ccc(OC(F)(F)F)cc4)n3)c(F)c2)c1` [F35, (Z)-1-(3-Fluoro-4-((1-(4-(trifluoromethoxy)phenyl)-1H-1,2,4-triazol-3-yl)methoxy)phenyl)-3-(3-(2-isopropyl-5-methylphenyl)-4-oxothiazolidin-2-ylidene)urea], the mortality at 50 µg/cm2 in data set [1] and in data set [2] was 50 to 100% in each case.

With `CCCc1ccc(C)cc1N1C(=O)CS/C1=N\C(=O)Nc1ccc(OCc2ncn(-c3ccc(OC(F)(F)F)cc3)n2)c(F)c1` [F36, (Z)-1-(3-Fluoro-4-((1-(4-(trifluoromethoxy)phenyl)-1H-1,2,4-triazol-3-yl)methoxy)phenyl)-3-(3-(5-methyl-2-propylphenyl)-4-oxothiazolidin-2-ylidene)urea], the mortality at 50 µg/cm2 in data set [1] and in data set [2] was 50 to 100% each time.

As for `COCc1ccc(C)cc1N1C(=O)CS/C1=N\C(=O)Nc1ccc(OCc2ncn(-c3ccc(OC(F)(F)F)cc3)n2)c(F)c1` [F37, (Z)-1-(3-Fluoro-4-((1-(4-(trifluoromethoxy)phenyl)-1H-1,2,4-triazol-3-yl)methoxy)phenyl)-3-(3-(2-(methoxymethyl)-5-methylphenyl)-4-oxothiazolidin-2-ylidene)urea], the mortality at 50 µg/cm2 in data set [1] and in data set [2] was 50 to 100% in each case.

Consider `Cc1ccc(C(C)C)c(N2C(=O)CS/C2=N\C(=O)Nc2ccc(OCc3ncn(-c4ccc(OC(F)(F)F)cc4)n3)c(Cl)c2)c1` [F38, (Z)-1-(3-Chloro-4-((1-(4-(trifluoromethoxy)phenyl)-1H-1,2,4-triazol-3-yl)methoxy)phenyl)-3-(3-(2-isopropyl-5-methylphenyl)-4-oxothiazolidin-2-ylidene)urea], for which the mortality at 50 µg/cm2 in data set [1] and in data set [2] was 50 to 100% each time.

With `CCCc1ccc(C)cc1N1C(=O)CS/C1=N\C(=O)Nc1ccc(OCc2ncn(-c3ccc(OC(F)(F)F)cc3)n2)c(Cl)c1` [F39, (Z)-1-(3-Chloro-4-((1-(4-(trifluoromethoxy)phenyl)-1H-1,2,4-triazol-3-yl)methoxy)phenyl)-3-(3-(5-methyl-2-propylphenyl)-4-oxothiazolidin-2-ylidene)urea], the mortality at 50 µg/cm2 in data set [1] and in data set [2] was 50 to 100% in each case.

In the case of `COCc1ccc(C)cc1N1C(=O)CS/C1=N\C(=O)Nc1ccc(OCc2ncn(-c3ccc(OC(F)(F)F)cc3)n2)c(Cl)c1` [F40, (Z)-1-(3-Chloro-4-((1-(4-(trifluoromethoxy)phenyl)-1H-1,2,4-triazol-3-yl)methoxy)phenyl)-3-(3-(2-(methoxymethyl)-5-methylphenyl)-4-oxothiazolidin-2-ylidene)urea], the mortality at 50 µg/cm2 in data set [1] and in data set [2] was 50 to 100% each time.

On to `CCCc1ccc(C)cc1N1C(=O)CS/C1=N\C(=O)Nc1cc(F)c(OCc2ncn(-c3ccc(OC(F)(F)F)cc3)n2)c(F)c1` [F42, (Z)-1-(3,5-Difluoro-4-((1-(4-(trifluoromethoxy)phenyl)-1H-1,2,4-triazol-3-yl)methoxy)phenyl)-3-(3-(5-methyl-2-propylphenyl)-4-oxothiazolidin-2-ylidene)urea], for which the mortality at 50 µg/cm2 in data set [1] and in data set [2] was 50 to 100% in each case.

Turning to `COCc1ccc(C)cc1N1C(=O)CS/C1=N\C(=O)Nc1cc(F)c(OCc2ncn(-c3ccc(OC(F)(F)F)cc3)n2)c(F)c1` [F43, (Z)-1-(3,5-Difluoro-4-((1-(4-(trifluoromethoxy)phenyl)-1H-1,2,4-triazol-3-yl)methoxy)phenyl)-3-(3-(2-(methoxymethyl)-5-methylphenyl)-4-oxothiazolidin-2-ylidene)urea], the mortality at 50 µg/cm2 in data set [1] and in data set [2] was 50 to 100% throughout.

On to `Cc1ccc(C(C)C)c(N2C(=O)CS/C2=N\C(=O)Nc2ccc(OCc3ncn(-c4ccc(OC(F)(F)F)cc4)n3)nc2)c1` [F44, (Z)-1-(3-(2-Isopropyl-5-methylphenyl)-4-oxothiazolidin-2-ylidene)-3-(6-((1-(4-(trifluoromethoxy)phenyl)-1H-1,2,4-triazol-3-yl)methoxy)pyridin-3-yl)urea], for which the mortality at 50 µg/cm2 in data set [1] and in data set [2] was 50 to 100% throughout.

As to `CCCc1ccc(C)cc1N1C(=O)CS/C1=N\C(=O)Nc1ccc(OCc2ncn(-c3ccc(OC(F)(F)F)cc3)n2)nc1` [F45, (Z)-1-(3-(5-Methyl-2-propylphenyl)-4-oxothiazolidin-2-ylidene)-3-(6-((1-(4-(trifluoromethoxy)phenyl)-1H-1,2,4-triazol-3-yl)methoxy)pyridin-3-yl)urea], the figures for the mortality at 50 µg/cm2 in data set [1] and in data set [2] were 0% and 0 to 50%, respectively.

In the case of `COCc1ccc(C)cc1N1C(=O)CS/C1=N\C(=O)Nc1ccc(OCc2ncn(-c3ccc(OC(F)(F)F)cc3)n2)nc1` [F46, (Z)-1-(3-(2-(Methoxymethyl)-5-methylphenyl)-4-oxothiazolidin-2-ylidene)-3-(6-((1-(4-(trifluoromethoxy)phenyl)-1H-1,2,4-triazol-3-yl)methoxy)pyridin-3-yl)urea], the mortality at 50 µg/cm2 in data set [1] was 0%; in data set [2], 0 to 50%.
